Measurements: PubChem BioAssay AID272 (DTP/NCI, 2004)
Several values for one entry are separate records, joined by “and”; a condition that tells them apart may be missing. Equal entries are not always repeated. Results filed as inconclusive are left out.

Test system: Lewis lung carcinoma i.m., BDF1 mice, T/C %
Test: NCI In Vivo Anticancer Drug Screen. Data for tumor model Lewis Lung Carcinoma (intramuscular) in B6D2F1 (BDF1) mice
Procedure, shortened: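 Compound given to mice with transplantable tumours; survival or tumour size compared against the vehicle control group, reported as T divided by C.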

Question: Which T/C (endpoint: median survival time, dose: 0.5 mg/kg/injection, schedule: Q01DX009 (ip), vehicle: saline, higher = longer survival) does the source give for CCC[CH2][Sn]1([CH2]CCC)[O]OC(c2ccccc2)[O]1 (stereo unspecified) here?
Answer: The T/C was 107 % of control.

Question: What about the T/C (endpoint: median survival time, dose: 1.0 mg/kg/injection, schedule: Q01DX009 (ip), vehicle: saline, higher = longer survival) of the same compound?
Answer: The T/C was 114 % of control.

Question: What about the T/C (endpoint: median survival time, dose: 2.0 mg/kg/injection, schedule: Q01DX009 (ip), vehicle: saline, higher = longer survival) of the same compound?
Answer: Its T/C is 106 % of control.

Question: And the T/C (endpoint: median survival time, dose: 4.0 mg/kg/injection, schedule: Q01DX009 (ip), vehicle: saline, higher = longer survival)?
Answer: The T/C was 113 % of control.

Question: For O=c1[nH]c(=O)n(C2CC(O)C(CO)O2)cc1C(F)(F)F (stereo unspecified), which T/C (endpoint: median survival time, dose: 2.5 mg/kg/injection, schedule: Q01DX009 (ip), vehicle: saline, higher = longer survival) is on record?
Answer: The T/C was 101 % of control.

Question: And the T/C (endpoint: median survival time, dose: 10.0 mg/kg/injection, schedule: Q01DX009 (ip), vehicle: saline, higher = longer survival)?
Answer: Its T/C is 93 % of control.

Question: What about the T/C (endpoint: median survival time, dose: 20.0 mg/kg/injection, schedule: Q01DX009 (ip), vehicle: saline, higher = longer survival) of the same compound?
Answer: Its T/C is 94 % of control and 101 % of control.

Question: Which results are given for C=CCNC(=O)NCC=C?
Answer: T/C (endpoint: mean tumor weight, dose: 6.25 mg/kg/injection, schedule: Q01DX011 (ip), vehicle: saline with Tween-80, higher = larger tumour): 74 % of control; T/C (endpoint: mean tumor weight, dose: 12.5 mg/kg/injection, schedule: Q01DX011 (ip), vehicle: saline with Tween-80, higher = larger tumour): 69 % of control; T/C (endpoint: mean tumor weight, dose: 25.0 mg/kg/injection, schedule: Q01DX011 (ip), vehicle: saline with Tween-80, higher = larger tumour): 73 % of control; T/C (endpoint: mean tumor weight, dose: 50.0 mg/kg/injection, schedule: Q01DX011 (ip), vehicle: saline with Tween-80, higher = larger tumour): 76 % of control; T/C (endpoint: mean tumor weight, dose: 100.0 mg/kg/injection, schedule: Q01DX011 (ip), vehicle: saline with Tween-80, higher = larger tumour): 80 % of control; T/C (endpoint: median survival time, dose: 6.25 mg/kg/injection, schedule: Q01DX011 (ip), vehicle: saline with Tween-80, higher = longer survival): 113 % of control; T/C (endpoint: median survival time, dose: 12.5 mg/kg/injection, schedule: Q01DX011 (ip), vehicle: saline with Tween-80, higher = longer survival): 108 % of control; T/C (endpoint: median survival time, dose: 25.0 mg/kg/injection, schedule: Q01DX011 (ip), vehicle: saline with Tween-80, higher = longer survival): 113 % of control; T/C (endpoint: median survival time, dose: 50.0 mg/kg/injection, schedule: Q01DX011 (ip), vehicle: saline with Tween-80, higher = longer survival): 86 % of control; T/C (endpoint: median survival time, dose: 100.0 mg/kg/injection, schedule: Q01DX011 (ip), vehicle: saline with Tween-80, higher = longer survival): 100 % of control

Question: What does the source list for S=c1nc[nH]c2nc[nH]c12?
Answer: T/C (endpoint: mean tumor weight, dose: 10.0 mg/kg/injection, schedule: Q01DX011 (ip), vehicle: other, higher = larger tumour): 77 % of control; T/C (endpoint: mean tumor weight, dose: 20.0 mg/kg/injection, schedule: Q01DX011 (ip), vehicle: other, higher = larger tumour): 77 % of control; T/C (endpoint: mean tumor weight, dose: 40.0 mg/kg/injection, schedule: Q01DX011 (ip), vehicle: other, higher = larger tumour): 89 % of control; T/C (endpoint: mean tumor weight, dose: 65.0 mg/kg/injection, schedule: Q01DX011 (ip), vehicle: other, higher = larger tumour): 58 % of control; T/C (endpoint: median survival time, dose: 4.0 mg/kg/injection, schedule: Q01DX011 (ip), vehicle: other, higher = longer survival): 91 % of control and 108 % of control; T/C (endpoint: median survival time, dose: 8.0 mg/kg/injection, schedule: Q01DX011 (ip), vehicle: other, higher = longer survival): 91 % of control and 111 % of control; T/C (endpoint: median survival time, dose: 10.0 mg/kg/injection, schedule: Q01DX011 (ip), vehicle: other, higher = longer survival): 110 % of control; T/C (endpoint: median survival time, dose: 16.0 mg/kg/injection, schedule: Q01DX011 (ip), vehicle: other, higher = longer survival): 93 % of control; T/C (endpoint: median survival time, dose: 20.0 mg/kg/injection, schedule: Q01DX011 (ip), vehicle: other, higher = longer survival): 112 % of control; T/C (endpoint: median survival time, dose: 32.0 mg/kg/injection, schedule: Q01DX011 (ip), vehicle: other, higher = longer survival): 98 % of control

Question: With CC1(C)N=C(N)N=C(N)N1c1ccc(CCc2ccccc2)cc1 as the compound, how does the T/C (endpoint: mean tumor weight, dose: 12.5 mg/kg/injection, schedule: Q01DX011 (ip), vehicle: saline, higher = larger tumour) read?
Answer: The T/C was 84 % of control.

Question: And the T/C (endpoint: mean tumor weight, dose: 25.0 mg/kg/injection, schedule: Q01DX011 (ip), vehicle: saline, higher = larger tumour)?
Answer: The T/C was 46 % of control.

Question: What about the T/C (endpoint: median survival time, dose: 12.5 mg/kg/injection, schedule: Q01DX011 (ip), vehicle: saline, higher = longer survival) of the same compound?
Answer: Its T/C is 104 % of control.

Question: What about the T/C (endpoint: median survival time, dose: 25.0 mg/kg/injection, schedule: Q01DX011 (ip), vehicle: saline, higher = longer survival) of the same compound?
Answer: Its T/C is 89 % of control.
